How the values were obtained:
[1] = system: binding site 2 of the sodium channel; experiment: Binding investigations at sodium channel binding site 2 (BTX binding); conditions: rat cerebrocortex synaptosomes; for BTX binding at 10 μM [%] inhibition: [3H]-Batrachotoxinin A20 α-benzoate 10 nM, 37° C., 120 min
Method: Binding Investigations at Sodium Channel Binding Site 2
Binding site 2 of the sodium channel is the so-called batrachotoxin (BTX) binding site. [^3H]-Batrachotoxinin A20 α-benzoate (10 nM in the batch) was used as ligand. These ion channel particles (synaptosomes) were enriched from rat cerebrocortex after Gray and Whittaker (E. G. Gray and V. P. Whittaker (1962) J. Anat. 76, 79-88). The radioactivity measured in the presence of veratridine (0.3 mM in the batch) is defined as non-specific binding.
The assay conditions were as published by Pauwels, Leysen and Laduron (P. J. Pauwels, J. E. Leysen and P. M. Laduron (1986) Eur. J. Pharmacol. 124, 291-298). Incubation at 37° C. for 120 min.

NA transporter = target: T1, NA transporter (Rattus norvegicus, UniProt Q63380); experiment: Noradrenaline reuptake inhibition (NA uptake inhibition) in synaptosomes; type: biochemical; conditions: synaptosomes from hypothalamus of male rat brains
T1 construct: synaptosomes were freshly isolated from rat brain regions; from tissue; host or cells: rat hypothalamus synaptosomes (P2 fraction)
Method: In order to be able to carry out these in vitro studies, synaptosomes were freshly isolated from rat brain regions. A so-called “P2” fraction was used, which was prepared according to the instructions given by Gray and Whittaker (E. G. Gray and V. P. Whittaker (1962) J. Anat. 76, 79-88).

T1 sequence (Q63380 1-617): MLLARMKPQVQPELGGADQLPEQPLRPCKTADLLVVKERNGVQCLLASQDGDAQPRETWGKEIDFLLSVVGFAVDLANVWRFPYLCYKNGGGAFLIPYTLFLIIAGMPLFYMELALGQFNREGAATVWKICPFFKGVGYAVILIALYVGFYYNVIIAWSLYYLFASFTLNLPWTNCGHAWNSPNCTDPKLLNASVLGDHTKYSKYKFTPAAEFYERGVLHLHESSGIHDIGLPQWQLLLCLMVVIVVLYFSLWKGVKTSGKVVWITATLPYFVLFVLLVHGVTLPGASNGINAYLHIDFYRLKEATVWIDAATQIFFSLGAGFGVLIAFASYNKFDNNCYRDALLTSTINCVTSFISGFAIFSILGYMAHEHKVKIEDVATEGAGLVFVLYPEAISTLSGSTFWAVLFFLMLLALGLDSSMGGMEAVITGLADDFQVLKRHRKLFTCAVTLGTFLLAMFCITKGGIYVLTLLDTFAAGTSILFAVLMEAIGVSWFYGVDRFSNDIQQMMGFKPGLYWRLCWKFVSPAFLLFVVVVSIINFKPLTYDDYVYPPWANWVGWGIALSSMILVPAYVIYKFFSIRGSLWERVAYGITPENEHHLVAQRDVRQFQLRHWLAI

Compound | BTX binding at 10 μM [%] inhibition [1] | inhibition at 10 µM (NA transporter) | further results
Cc1ccccc1C1(O)CCCCC1CN1CCN(C)CC1 (stereo not shown) [2-(4-Methyl-piperazin-1-ylmethyl)-1-o-tolyl-cyclohexanol] | 50% | – | –
CN1CCN(CC2CCCCCCC2(O)c2ccc(C(C)(C)C)cc2)CC1 (stereo not shown) [1-(4-tert-Butyl-phenyl)-2-(4-methyl-piperazin-1-ylmethyl)-cyclooctanol] | 64% | – | –
CCC(O)(c1cccc(C)c1)C(C)CN1CCN(c2cccc(Cl)c2)CC1 (stereo not shown) [1-[4-(3-Chloro-phenyl)-piperazin-1-yl]-2-methyl-3-m-tolyl-pentan-3-ol] | – | 42% | –
CCC(O)(c1ccc(C(C)(C)C)cc1)C(C)CN1CCN(C)CC1 (stereo not shown) [3-(4-tert-Butyl-phenyl)-2-methyl-1-(4-methyl-piperazin-1-yl)-pentan-3-ol] | 68% | – | –
CCC(O)(C#Cc1ccccc1)C(C)CN1CCN(c2cccc(Cl)c2)CC1 (stereo not shown) [5-[4-(3-Chloro-phenyl)-piperazin-1-yl]-3-ethyl-4-methyl-1-phenyl-pent-1-yn-3-ol] | – | 46% | –
CCC(O)(c1ccc(F)c(C)c1)C(C)CN1CCN(c2cccc(Cl)c2)CC1 (stereo not shown) [1-[4-(3-Chloro-phenyl)-piperazin-1-yl]-3-(4-fluoro-3-methyl-phenyl)-2-methyl-pentan-3-ol] | – | 39% | –
CCC(O)(c1ccc(F)c(C)c1)C(C)CN1CCN(C)CC1 (stereo not shown) [3-(4-Fluoro-3-methyl-phenyl)-2-methyl-1-(4-methyl-piperazin-1-yl)-pentan-3-ol] | 56% | – | –
CCC(O)(c1ccc(Cl)cc1)C(C)CN1CCN(c2cccc(Cl)c2)CC1 (stereo not shown) [3-(4-Chloro-phenyl)-1-[4-(3-chloro-phenyl)-piperazin-1-yl]-2-methyl-pentan-3-ol] | – | 54% | –
CCC(O)(c1ccccc1)C(C)CN1CCN(C)CC1 (stereo not shown) [2-Methyl-1-(4-methyl-piperazin-1-yl)-3-phenyl-pentan-3-ol] | 58% | – | –
CN1CCN(CC2CCCCC2(O)C2CCCC2)CC1 (stereo not shown) [1-Cyclopentyl-2-(4-methyl-piperazin-1-ylmethyl)-cyclohexanol] | 49% | – | –
CCC(O)(c1cccc(Cl)c1)C(C)CN1CCN(c2cccc(Cl)c2)CC1 (stereo not shown) [3-(3-Chloro-phenyl)-1-[4-(3-chloro-phenyl)-piperazin-1-yl]-2-methyl-pentan-3-ol] | – | 53% | –
CCC(O)(CCCc1ccccc1)C(C)CN1CCN(C)CC1 (stereo not shown) [3-Ethyl-2-methyl-1-(4-methyl-piperazin-1-yl)-6-phenyl-hexan-3-ol] | 74% | – | –
CCC(O)(c1ccc(F)cc1)C(C)CN1CCN(c2cccc(Cl)c2)CC1 (stereo not shown) [1-[4-(3-Chloro-phenyl)-piperazin-1-yl]-3-(4-fluoro-phenyl)-2-methyl-pentan-3-ol] | – | 53% | –
CCC(O)(c1ccc(C)cc1)C(C)CN1CCN(C)CC1 (stereo not shown) [2-Methyl-1-(4-methyl-piperazin-1-yl)-3-p-tolyl-pentan-3-ol] | 48% | – | –
CCC(O)(C(C)CN1CCN(C)CC1)C1CCCCC1 (stereo not shown) [3-Cyclohexyl-2-methyl-1-(4-methyl-piperazin-1-yl)-pentan-3-ol] | 59% | – | –
CCC(O)(c1ccc(C)cc1)C(C)CN1CCN(c2cccc(Cl)c2)CC1 (stereo not shown) [1-[4-(3-Chloro-phenyl)-piperazin-1-yl]-2-methyl-3-p-tolyl-pentan-3-ol] | – | 41% | –
CN1CCN(CC2CCCCCCC2(O)CCCc2ccccc2)CC1 (stereo not shown) [2-(4-Methyl-piperazin-1-ylmethyl)-1-(3-phenyl-propyl)-cyclooctanol] | 87% | – | –
CCC(O)(c1cccs1)C(C)CN1CCN(C)CC1 (stereo not shown) [2-Methyl-1-(4-methyl-piperazin-1-yl)-3-thiophen-2-yl-pentan-3-ol] | 47% | – | –
CCC(O)(CCc1ccccc1)C(C)CN1CCN(c2cccc(Cl)c2)CC1 (stereo not shown) [1-[4-(3-Chloro-phenyl)-piperazin-1-yl]-3-ethyl-2-methyl-5-phenyl-pentan-3-ol] | – | 52% | –
COc1ccc(C2(O)CCCCCCC2CN2CCN(C)CC2)cc1 (stereo not shown) [1-(4-Methoxy-phenyl)-2-(4-methyl-piperazin-1-ylmethyl)-cyclooctanol] | 42% | – | –
CCC(O)(Cc1ccccc1)C(C)CN1CCN(c2cccc(Cl)c2)CC1 (stereo not shown) [3-Benzyl-1-[4-(3-chloro-phenyl)-piperazin-1-yl]-2-methyl-pentan-3-ol] | – | 55% | –
CN1CCN(CC2CCCCC2(O)C2CCCCC2)CC1 (stereo not shown) [2-(4-Methyl-piperazin-1-ylmethyl)-bicyclohexyl-1-ol] | 63% | – | –
CCC(O)(c1ccc(C(C)(C)C)cc1)C(C)CN1CCN(c2cccc(Cl)c2)CC1 (stereo not shown) [3-(4-tert-Butyl-phenyl)-1-[4-(3-chloro-phenyl)-piperazin-1-yl]-2-methyl-pentan-3-ol] | – | 62% | –

Compound | BTX binding at 10 μM [%] inhibition [1] | inhibition at 10 µM (NA transporter) | further results
CCC(O)(c1ccc(OC)cc1)C(C)CN1CCN(c2cccc(Cl)c2)CC1 (stereo not shown) [1-[4-(3-Chloro-phenyl)-piperazin-1-yl]-3-(4-methoxy-phenyl)-2-methyl-pentan-3-ol] | – | 45% | –
[^3H]-Batrachotoxinin A20 α-benzoate [reference compound] | – | – | Kd ([1]; radioligand, read-out: KD value for this binding site): 24.6 nM
CCC(O)(c1cccs1)C(C)CN1CCN(c2cccc(Cl)c2)CC1 (stereo not shown) [1-[4-(3-Chloro-phenyl)-piperazin-1-yl]-2-methyl-3-thiophen-2-yl-pentan-3-ol] | – | 45% | –
Cc1cccc(C2(O)CCCCCC2CN2CCN(C)CC2)c1 (stereo not shown) [2-(4-Methyl-piperazin-1-ylmethyl)-1-m-tolyl-cycloheptanol] | 44% | – | –
CCC(O)(Cc1cccc(C)c1)C(C)CN1CCN(c2cccc(Cl)c2)CC1 (stereo not shown) [1-[4-(3-Chloro-phenyl)-piperazin-1-yl]-2-methyl-3-(3-methyl-benzyl)-pentan-3-ol] | – | 55% | –
CCC(O)(Cc1ccccc1)C(C)CN1CCN(C)CC1 (stereo not shown) [3-Benzyl-2-methyl-1-(4-methyl-piperazin-1-yl)-pentan-3-ol] | 42% | – | –
CN1CCN(CC2CCCCCCC2(O)Cc2ccccc2)CC1 (stereo not shown) [1-Benzyl-2-(4-methyl-piperazin-1-ylmethyl)-cyclooctanol] | 75% | – | –
CN1CCN(CC2CCCCC2(O)Cc2ccccc2)CC1 (stereo not shown) [1-Benzyl-2-(4-methyl-piperazin-1-ylmethyl)-cyclohexanol] | 71% | – | –
CN1CCN(CC2CCCCC2(O)CCCc2ccccc2)CC1 (stereo not shown) [2-(4-Methyl-piperazin-1-ylmethyl)-1-(3-phenyl-propyl)-cyclohexanol] | 80% | – | –
CCC(O)(c1ccc(Cl)cc1)C(C)CN1CCN(C)CC1 (stereo not shown) [3-(4-Chloro-phenyl)-2-methyl-1-(4-methyl-piperazin-1-yl)-pentan-3-ol] | 59% | – | –
CN1CCN(CC2CCCCCCC2(O)c2cccs2)CC1 (stereo not shown) [2-(4-Methyl-piperazin-1-ylmethyl)-1-thiophen-2-yl-cyclooctanol] | 64% | – | –
CN1CCN(CC2CCCCCC2(O)C2CCCC2)CC1 (stereo not shown) [1-Cyclopentyl-2-(4-methyl-piperazin-1-ylmethyl)-cycloheptanol] | 55% | – | –
CCC(O)(Cc1cccc(F)c1)C(C)CN1CCN(c2cccc(Cl)c2)CC1 (stereo not shown) [1-[4-(3-Chloro-phenyl)-piperazin-1-yl]-3-(3-fluoro-benzyl)-2-methyl-pentan-3-ol] | – | 50% | –
CCC(O)(c1ccccc1C)C(C)CN1CCN(C)CC1 (stereo not shown) [2-Methyl-1-(4-methyl-piperazin-1-yl)-3-o-tolyl-pentan-3-ol] | 43% | – | –
CN1CCN(CC2CCCCCCC2(O)C2CCCC2)CC1 (stereo not shown) [1-Cyclopentyl-2-(4-methyl-piperazin-1-ylmethyl)-cyclooctanol] | 48% | – | –
CCC(O)(c1ccccc1)C(C)CN1CCN(c2cccc(Cl)c2)CC1 (stereo not shown) [1-[4-(3-Chloro-phenyl)-piperazin-1-yl]-2-methyl-3-phenyl-pentan-3-ol] | – | 61% | –
CCC(O)(c1cccc(C(F)(F)F)c1)C(C)CN1CCN(c2cccc(Cl)c2)CC1 (stereo not shown) [1-[4-(3-Chloro-phenyl)-piperazin-1-yl]-2-methyl-3-(3-trifluoromethyl-phenyl)-pentan-3-ol] | – | 65% | –
CN1CCN(CC2CCCCCC2(O)Cc2ccccc2)CC1 (stereo not shown) [1-Benzyl-2-(4-methyl-piperazin-1-ylmethyl)-cycloheptanol] | 86% | – | –
CN1CCN(CC2CCCCC2(O)c2ccc(Cl)cc2Cl)CC1 (stereo not shown) [1-(2,4-Dichloro-phenyl)-2-(4-methyl-piperazin-1-ylmethyl)-cyclohexanol] | 55% | – | –
CN1CCN(CC2CCCCC2(O)c2ccc(F)cc2)CC1 (stereo not shown) [1-(4-Fluoro-phenyl)-2-(4-methyl-piperazin-1-ylmethyl)-cyclohexanol] | – | 51% | –
CN1CCN(CC2CCCCCC2(O)c2ccc(C(C)(C)C)cc2)CC1 (stereo not shown) [1-(4-tert-Butyl-phenyl)-2-(4-methyl-piperazin-1-ylmethyl)-cycloheptanol] | 80% | – | –
C=CC(O)(CC)C(C)CN1CCN(c2cccc(Cl)c2)CC1 (stereo not shown) [5-[4-(3-Chloro-phenyl)-piperazin-1-yl]-3-ethyl-4-methyl-pent-1-en-3-ol] | – | 53% | –
C=CC(O)(CC)C(C)CN1CCN(C)CC1 (stereo not shown) [3-Ethyl-4-methyl-5-(4-methyl-piperazin-1-yl)-pent-1-en-3-ol] | 67% | – | –

From patent US7390812B2, “N, N'-disubstituted piperazine compounds and their use as analgesics” (Gruenenthal GmbH, priority 2001, dated 2008)
